Results published in patent EP0018104A2, “Tetrahydroisoquinolines, their production and the compounds and pharmaceutical compositions containing them for use in the prevention or treatment of hypertension” (Takeda Chemical Industries, Ltd., priority 1979, dated 1980).

Target: T1, angiotensin I converting enzyme (ACE) (Oryctolagus cuniculus, UniProt P12822)
T1 construct: prepared from the lungs of albino rabbit according to the method described by Wallace et al; from tissue; host or cells: lungs of albino rabbit
T1 sequence (P12822 34-1310): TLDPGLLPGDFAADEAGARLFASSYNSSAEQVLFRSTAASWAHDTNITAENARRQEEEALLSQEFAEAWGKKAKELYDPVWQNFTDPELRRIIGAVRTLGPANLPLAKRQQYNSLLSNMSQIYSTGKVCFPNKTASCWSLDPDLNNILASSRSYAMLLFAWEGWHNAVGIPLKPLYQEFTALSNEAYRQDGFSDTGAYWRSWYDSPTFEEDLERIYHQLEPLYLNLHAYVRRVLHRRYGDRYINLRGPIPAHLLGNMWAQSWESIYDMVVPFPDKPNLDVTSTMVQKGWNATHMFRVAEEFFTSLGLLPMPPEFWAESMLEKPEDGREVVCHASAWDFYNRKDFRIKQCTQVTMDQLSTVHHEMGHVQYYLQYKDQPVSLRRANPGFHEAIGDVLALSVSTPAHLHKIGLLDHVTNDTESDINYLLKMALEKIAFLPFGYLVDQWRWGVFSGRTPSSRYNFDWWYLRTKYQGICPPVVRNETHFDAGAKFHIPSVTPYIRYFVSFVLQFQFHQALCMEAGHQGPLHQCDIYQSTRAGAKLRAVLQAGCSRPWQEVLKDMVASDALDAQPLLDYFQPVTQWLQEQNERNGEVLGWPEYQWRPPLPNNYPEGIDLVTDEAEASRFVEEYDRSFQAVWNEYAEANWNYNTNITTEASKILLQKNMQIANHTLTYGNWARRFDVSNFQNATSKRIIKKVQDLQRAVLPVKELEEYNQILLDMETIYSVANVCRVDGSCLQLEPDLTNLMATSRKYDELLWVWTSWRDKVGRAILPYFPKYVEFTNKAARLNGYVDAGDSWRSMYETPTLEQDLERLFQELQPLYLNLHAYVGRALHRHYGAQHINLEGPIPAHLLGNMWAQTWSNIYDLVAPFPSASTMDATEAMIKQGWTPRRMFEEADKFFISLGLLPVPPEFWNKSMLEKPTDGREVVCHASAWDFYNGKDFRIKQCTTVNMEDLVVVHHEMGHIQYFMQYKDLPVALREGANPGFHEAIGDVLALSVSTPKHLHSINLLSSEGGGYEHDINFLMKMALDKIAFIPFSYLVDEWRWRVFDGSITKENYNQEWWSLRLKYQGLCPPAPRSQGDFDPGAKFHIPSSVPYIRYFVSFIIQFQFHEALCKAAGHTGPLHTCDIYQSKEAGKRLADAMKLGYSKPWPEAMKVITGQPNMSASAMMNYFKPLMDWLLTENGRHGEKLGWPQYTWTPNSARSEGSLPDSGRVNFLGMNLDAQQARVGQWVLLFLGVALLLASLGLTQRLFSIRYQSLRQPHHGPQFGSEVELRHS
Assay: Inhibition of angiotensin I converting enzyme (HHL substrate, hippuric acid colorimetry, modified Cushman method)
Assay type: biochemical, albino rabbit
Settings: ACE from rabbit lung, 37°C, one hour, read-out: Inhibitory Activity on ACE (%); for inhibition at 1 µM: Concentration 1 µM; for inhibition at 10 µM: Concentration 10 µM
Experimental: Inhibitions of Angiotensin I Converting Enzyme by the Compounds of this Invention.
The experiment was conducted in accordance with a modification of the method described by Cushman et al. [Biochemical Pharmacology, Vol. 20, p1637(1971)] using an angiotensin I converting enzyme (ACE) prepared from the lungs of albino rabbit according to the method described by Wallace et al. [American Journal of Physiology, Vol 234, page R141(1978)]. That is, using hippuryl-L-histidyl-L-leucin (HHL) as the substrate, the ACE inhibitory activity was determined in terms of percentage inhibitation on the amount of hippurie acid produced by ACE when the present compound was added. A solution of the compound of the present invention dissolved in an 0.02 to 2% dimethyl sulfoxide-500 mMpotassium phosphate buffer solution (pH 8.3, containing 300 mM sodium chloride) was added to 100 µℓ of ACE (protein concentration, 20 mg/mℓ) and 100 µℓ of 1.25 mM HHL. In this experiment a potassium phosphate buffer solution containing dimethyl sulfoxide at a concentration equal to that of the test solution was used as a control. After incubating the solution at 37°C for one hour, 150 µℓ of 1N hydrochloric acid were added to the solution to terminate the reaction. After 1 mℓ of ethyl acetate was added, the solution was centrifuged at 3000 r.p.m. for 10 minutes. An 0.5 mℓ aliquot was separated from the ethyl acetate layer and dried at a temperature below 50°C under a nitrogen. gas stream. The residue was mixed with mℓ of 1M aqueous sodium chloride and the mixture was subjected to colorimetry at a wavelength of 228 nm.

inhibition at 1 µM | inhibition at 10 µM | SMILES
66% | 97% | CC(=O)SCC(C)C(=O)N1Cc2cc(N3CCCCC3)ccc2CC1C(=O)O (centres unmarked) [Example 44, 2-(3-acetylthio-2-methylpropionyl)-7-piperidino-1,2,3,4-tetrahydroisoquinoline-3-carbozylic acid]
69% | 93% | CC(=O)SCC(C)C(=O)N1Cc2cc(Br)ccc2CC1C(=O)O (centres unmarked) [Example 42, 2-(3-acetylthio-2-methylpropiony)-7-tromo-1,2,3,4-tetrahydroisoquinoline-3-carboxylic acid]
33% | 90% | COc1cc2c(cc1O)CN(C(=O)C(C)CSC(C)=O)C(C(=O)O)C2 (centres unmarked) [Example 14, 2-(3-acetylthio-2-methylpropionyl)-7-hydroxy-6-methoxy-1,2,3,4-tetrahydroisoquinoline-3-carbxylic acid]
60% | 82% | CC(CS)C(=O)N1Cc2cc3c(cc2C[C@H]1C(=O)O)OCO3 (stereo partly drawn) [Example 52, (3S)-2-(3-mercapto-2-methylpropionul)-1,7-mezhylene-dioxy-1,2,3,4-tetrahydroisoquinoline-3-earboxylie acid]
